Data reported in patent US20260226077A1, “TYPE II TOPOISOMERASE INHIBITORS AND METHODS OF MAKING AND USING THEREOF” (Ohio State Innovation Foundation, priority 2023, published 2026).
≈ marks a conversion by molar mass, not a printed value.

Legend:
[1] = tested on: TopoIV/gyrase; assay: TopoIV/gyrase inhibition ratio; assay type: biochemical
[2] = tested on: Staphylococcus aureus; assay: MIC50/90 against Staphylococcus aureus isolates; assay type: cell-based; conditions: n = 30 (147), n = 100 (284, 319, gepotidacin)
[3] = tested on: Streptococcus pneumoniae; assay: MIC50/90 against Streptococcus pneumoniae; assay type: cell-based
[4] = tested on: Streptococcus agalactiae; assay: MIC50/90 against Streptococcus agalactiae; assay type: cell-based
[5] = tested on: Neisseria gonorrhoeae; assay: MIC50/90 against Neisseria gonorrhoeae; assay type: cell-based
[6] = tested on: Pseudomonas aeruginosa 27853; assay: MIC against Pseudomonas aeruginosa 27853; assay type: cell-based
[7] = Permeability: MDCK II A->B; assay type: in vitro ADME; conditions: dog
[8] = not given; remark: listed apart in the source
[9] = not given; remark: listed apart in the source
[10] = all channels
[11] = in vitro; conditions: human, hepatocytes
[12] = physchem; conditions: pH 7.4, aqueous buffer, kinetic from dmso stock, Kinetic solubility at pH 7.4-7.5 (μM)
[13] = Neisseria gonorrhoeae, n = 17 (284, gepotidacin), n = 110 (147)

Structure (SMILES): COc1ccc2ncc(F)c(C[C@H](O)[C@H]3OC[C@H](NCc4cnc5c(n4)NC(=O)CO5)CO3)c2n1 [Compound 284, 6-(((2-((S)-2-(3-fluoro-6-methoxy-1,5-naphthyridin-4-yl)-1-hydroxyethyl)-trans-1,3-dioxan-5-yl)amino)methyl)-2H-pyrazino[2,3-b][1,4]oxazin-3(4H)-one]
- TopoIV/gyrase ratio [1]: 0.28
- MIC50 [2]: 0.12 µg/mL (≈ 0.247 µM)
- MIC90 [2]: 0.25 µg/mL (≈ 0.514 µM)
- MIC50 ([3]; n = 5 (147), n = 10 (others)): 0.5 µg/mL (≈ 1.03 µM)
- MIC90 ([3]; n = 10): 1 µg/mL (≈ 2.06 µM)
- MIC50 ([4]; Streptococcus agalactiae, n = 5 (147), n = 10 (others)): 4 µg/mL (≈ 8.22 µM)
- Streptococcus agalactiae MIC90 ([4]; n = 10): 16 µg/mL
- MIC50 ([5]; Neisseria gonorrhoeae, n = 100): 0.5 µg/mL (≈ 1.03 µM)
- MIC50 [5, 13]: 1 µg/mL (≈ 2.06 µM)
- MIC90 [5, 13]: 2 µg/mL (≈ 4.11 µM)
- Neisseria gonorrhoeae MIC90 ([5]; n = 100): 2 µg/mL
- MIC [6]: 64 µg/mL (≈ 132 µM)
- Papp A→B [7]: 0.74 ×10⁻⁶ cm/s
- Dog plasma protein binding (% unbound): 20 % unbound
- Kinetic solubility at pH 7.4-7.5 (μM) [8]: > 200 μM
- Safety44 screen at 100 μM [9]: None >50%
- Comprehensive in vitro proarrhythmia assay at 100 μM, inhibition [10]: All <25%
- half-life [11]: > 4 h
- solubility kinetic [12]: 118 µM (≈ 57.2 µg/mL)
